{"source": "patent US20130338106A1", "about": "“COMPOUNDS INHIBITING LEUCINE-RICH REPEAT KINASE ENZYME ACTIVITY” (priority 2011, published 2013)", "type_in_all_cases": "biochemical", "details_in_all_cases": "tested at 10 uM, read-out: percent inhibition of the kinase activity", "key": {"CHK1": {"molecular_target": "T1, CHK1 (Homo sapiens, UniProt O14757)", "T1 construct": "purchased Caliper LifeSciences", "test": "ProfilerPro Kinase Selectivity, CHK1", "experimental": "(§1) Kinome selectivity profiling was performed using two example compounds according to the manufacturer's instructions using Caliper LifeSciences' ProfilerPro Kinase Selectivity Assay Kits. Compounds prepared in Examples 1 and 7 were tested at 10 uM and data were recorded using the Caliper LabChip® EZ Reader™. Each compounds' percent inhibition of the kinase activity measured in this manner is reported in the following lists."}, "EPHA8": {"molecular_target": "T2, EPHA8 (Homo sapiens, UniProt P29322)", "T2 construct": "purchased Caliper LifeSciences", "test": "ProfilerPro Kinase Selectivity, EPHA8", "experimental": "as §1"}, "PRKCZ": {"molecular_target": "T3, PRKCZ (Homo sapiens, UniProt Q05513)", "T3 construct": "purchased Caliper LifeSciences", "T3 sequence (Q05513 whole entry, species assumed)": "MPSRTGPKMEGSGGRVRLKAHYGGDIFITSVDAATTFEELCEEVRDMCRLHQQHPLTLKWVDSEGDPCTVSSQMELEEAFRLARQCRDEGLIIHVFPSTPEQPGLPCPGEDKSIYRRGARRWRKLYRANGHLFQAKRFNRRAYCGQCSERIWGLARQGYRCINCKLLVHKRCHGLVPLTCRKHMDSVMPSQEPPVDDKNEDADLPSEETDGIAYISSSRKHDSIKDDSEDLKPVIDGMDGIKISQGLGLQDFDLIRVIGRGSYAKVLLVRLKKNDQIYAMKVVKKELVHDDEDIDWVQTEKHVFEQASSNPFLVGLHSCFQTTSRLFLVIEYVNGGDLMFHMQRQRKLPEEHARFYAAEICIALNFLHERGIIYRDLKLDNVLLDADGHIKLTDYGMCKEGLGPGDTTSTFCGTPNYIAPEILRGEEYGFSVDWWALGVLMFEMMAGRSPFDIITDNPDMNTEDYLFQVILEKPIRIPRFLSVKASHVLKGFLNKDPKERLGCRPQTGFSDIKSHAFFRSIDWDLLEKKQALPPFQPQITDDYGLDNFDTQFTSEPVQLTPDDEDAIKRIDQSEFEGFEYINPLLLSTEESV", "test": "ProfilerPro Kinase Selectivity, PRKCZ", "experimental": "as §1"}, "CK1G1": {"molecular_target": "T4, CK1G1 (Homo sapiens, UniProt Q9HCP0)", "T4 construct": "purchased Caliper LifeSciences", "T4 sequence (Q9HCP0 whole entry)": "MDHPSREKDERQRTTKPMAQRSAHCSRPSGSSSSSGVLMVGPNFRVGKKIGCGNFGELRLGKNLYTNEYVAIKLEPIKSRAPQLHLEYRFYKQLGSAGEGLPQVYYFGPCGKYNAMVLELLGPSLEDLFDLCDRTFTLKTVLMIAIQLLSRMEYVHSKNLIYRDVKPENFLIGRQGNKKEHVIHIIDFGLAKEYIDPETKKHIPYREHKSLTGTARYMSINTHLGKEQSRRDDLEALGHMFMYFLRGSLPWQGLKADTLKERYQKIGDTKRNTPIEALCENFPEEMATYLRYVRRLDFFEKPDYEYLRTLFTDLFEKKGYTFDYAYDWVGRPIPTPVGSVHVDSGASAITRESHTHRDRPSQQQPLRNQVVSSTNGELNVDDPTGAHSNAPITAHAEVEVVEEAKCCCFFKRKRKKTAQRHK", "test": "ProfilerPro Kinase Selectivity, CK1G1", "experimental": "as §1"}, "MSK1": {"molecular_target": "T5, MSK1 (Homo sapiens, UniProt O75582)", "T5 construct": "purchased Caliper LifeSciences", "test": "ProfilerPro Kinase Selectivity, MSK1", "experimental": "as §1"}, "PKD1": {"molecular_target": "T6, PKD1 (Homo sapiens, UniProt Q15139)", "T6 construct": "purchased Caliper LifeSciences", "T6 sequence (Q15139 whole entry)": "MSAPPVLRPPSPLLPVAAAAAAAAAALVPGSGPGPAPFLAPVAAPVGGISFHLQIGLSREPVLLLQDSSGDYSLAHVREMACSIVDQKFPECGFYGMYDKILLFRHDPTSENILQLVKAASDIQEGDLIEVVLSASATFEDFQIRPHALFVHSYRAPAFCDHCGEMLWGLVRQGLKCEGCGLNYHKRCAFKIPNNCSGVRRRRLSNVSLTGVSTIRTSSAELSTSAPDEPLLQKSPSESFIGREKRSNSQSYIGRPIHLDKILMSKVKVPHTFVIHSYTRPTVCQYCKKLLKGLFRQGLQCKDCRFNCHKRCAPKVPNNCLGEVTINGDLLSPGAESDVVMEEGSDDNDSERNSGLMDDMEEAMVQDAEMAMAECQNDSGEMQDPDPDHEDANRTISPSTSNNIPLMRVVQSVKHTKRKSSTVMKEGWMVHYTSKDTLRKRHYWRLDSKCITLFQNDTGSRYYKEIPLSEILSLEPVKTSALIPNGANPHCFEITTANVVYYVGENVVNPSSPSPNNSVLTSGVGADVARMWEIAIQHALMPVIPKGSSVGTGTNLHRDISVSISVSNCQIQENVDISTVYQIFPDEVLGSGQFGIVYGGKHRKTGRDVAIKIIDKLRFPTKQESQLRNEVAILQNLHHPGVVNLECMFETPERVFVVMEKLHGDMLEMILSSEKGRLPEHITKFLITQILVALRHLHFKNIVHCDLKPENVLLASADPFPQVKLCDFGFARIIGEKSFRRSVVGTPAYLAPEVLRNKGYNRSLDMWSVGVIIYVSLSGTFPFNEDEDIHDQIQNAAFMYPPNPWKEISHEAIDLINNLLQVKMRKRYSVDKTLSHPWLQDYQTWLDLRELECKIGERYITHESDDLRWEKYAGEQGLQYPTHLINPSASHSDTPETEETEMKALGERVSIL", "test": "ProfilerPro Kinase Selectivity, PKD1", "experimental": "as §1"}, "GCK": {"molecular_target": "T7, GCK (Homo sapiens, UniProt Q12851)", "T7 construct": "purchased Caliper LifeSciences", "test": "ProfilerPro Kinase Selectivity, GCK", "experimental": "as §1"}, "ABL": {"molecular_target": "T8, ABL (Homo sapiens, UniProt P00519)", "T8 construct": "purchased Caliper LifeSciences", "test": "ProfilerPro Kinase Selectivity, ABL", "experimental": "as §1"}, "CK1D": {"molecular_target": "T9, CK1D (Homo sapiens, UniProt P48730)", "T9 construct": "purchased Caliper LifeSciences", "T9 sequence (P48730 whole entry)": "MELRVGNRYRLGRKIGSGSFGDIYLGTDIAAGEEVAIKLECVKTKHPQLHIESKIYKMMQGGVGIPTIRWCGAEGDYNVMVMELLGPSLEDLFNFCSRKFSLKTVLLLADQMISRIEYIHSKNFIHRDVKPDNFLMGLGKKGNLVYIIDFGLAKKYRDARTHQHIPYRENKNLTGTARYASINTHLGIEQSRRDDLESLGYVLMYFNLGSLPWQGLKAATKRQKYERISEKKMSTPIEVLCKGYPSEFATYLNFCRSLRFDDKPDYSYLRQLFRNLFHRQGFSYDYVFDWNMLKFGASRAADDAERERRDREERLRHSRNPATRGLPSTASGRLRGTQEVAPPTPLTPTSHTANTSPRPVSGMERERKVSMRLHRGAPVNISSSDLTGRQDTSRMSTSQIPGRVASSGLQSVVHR", "test": "ProfilerPro Kinase Selectivity, CK1D", "experimental": "as §1"}, "FGFR2": {"molecular_target": "T10, FGFR2 (Homo sapiens, UniProt P21802)", "T10 construct": "purchased Caliper LifeSciences", "test": "ProfilerPro Kinase Selectivity, FGFR2", "experimental": "as §1"}, "BRSK2": {"molecular_target": "T11, BRSK2 (Homo sapiens, UniProt Q8IWQ3)", "T11 construct": "purchased Caliper LifeSciences", "T11 sequence (Q8IWQ3 whole entry, species assumed)": "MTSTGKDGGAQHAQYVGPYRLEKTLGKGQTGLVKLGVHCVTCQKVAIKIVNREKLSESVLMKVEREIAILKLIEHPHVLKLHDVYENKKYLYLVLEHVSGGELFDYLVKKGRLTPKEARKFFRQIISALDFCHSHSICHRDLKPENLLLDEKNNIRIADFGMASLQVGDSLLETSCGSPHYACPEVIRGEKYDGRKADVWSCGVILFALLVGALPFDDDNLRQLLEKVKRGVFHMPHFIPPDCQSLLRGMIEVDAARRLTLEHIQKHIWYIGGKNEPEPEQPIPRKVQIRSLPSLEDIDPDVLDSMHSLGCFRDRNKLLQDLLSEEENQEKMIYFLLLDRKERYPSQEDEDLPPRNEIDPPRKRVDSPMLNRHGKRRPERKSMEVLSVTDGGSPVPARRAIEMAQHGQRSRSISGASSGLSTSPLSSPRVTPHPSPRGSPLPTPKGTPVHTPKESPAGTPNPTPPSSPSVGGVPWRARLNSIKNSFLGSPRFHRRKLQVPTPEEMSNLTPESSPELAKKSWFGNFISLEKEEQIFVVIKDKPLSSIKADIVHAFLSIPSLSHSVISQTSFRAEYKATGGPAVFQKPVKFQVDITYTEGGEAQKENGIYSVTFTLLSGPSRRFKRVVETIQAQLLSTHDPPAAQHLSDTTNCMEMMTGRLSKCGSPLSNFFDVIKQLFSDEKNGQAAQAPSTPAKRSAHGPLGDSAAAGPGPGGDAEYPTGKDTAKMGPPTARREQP", "test": "ProfilerPro Kinase Selectivity, BRSK2", "experimental": "as §1"}, "MAPKAPK2": {"molecular_target": "T12, MAPKAPK2 (Homo sapiens, UniProt P49137)", "T12 construct": "purchased Caliper LifeSciences", "T12 sequence (P49137 whole entry, species assumed)": "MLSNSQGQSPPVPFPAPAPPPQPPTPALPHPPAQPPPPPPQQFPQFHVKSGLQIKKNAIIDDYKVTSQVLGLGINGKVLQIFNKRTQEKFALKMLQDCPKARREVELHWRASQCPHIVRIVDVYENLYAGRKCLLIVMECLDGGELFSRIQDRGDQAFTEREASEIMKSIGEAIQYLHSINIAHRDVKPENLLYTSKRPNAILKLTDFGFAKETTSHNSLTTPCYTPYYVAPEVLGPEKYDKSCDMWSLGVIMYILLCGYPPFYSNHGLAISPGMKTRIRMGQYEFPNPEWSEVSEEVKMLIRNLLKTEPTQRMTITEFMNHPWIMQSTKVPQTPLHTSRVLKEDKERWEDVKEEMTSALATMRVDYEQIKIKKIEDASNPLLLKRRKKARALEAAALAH", "test": "ProfilerPro Kinase Selectivity, MAPKAPK2", "experimental": "as §1"}, "NEK1": {"molecular_target": "T13, NEK1 (Homo sapiens, UniProt Q96PY6)", "T13 construct": "purchased Caliper LifeSciences", "T13 sequence (Q96PY6 whole entry, species assumed)": "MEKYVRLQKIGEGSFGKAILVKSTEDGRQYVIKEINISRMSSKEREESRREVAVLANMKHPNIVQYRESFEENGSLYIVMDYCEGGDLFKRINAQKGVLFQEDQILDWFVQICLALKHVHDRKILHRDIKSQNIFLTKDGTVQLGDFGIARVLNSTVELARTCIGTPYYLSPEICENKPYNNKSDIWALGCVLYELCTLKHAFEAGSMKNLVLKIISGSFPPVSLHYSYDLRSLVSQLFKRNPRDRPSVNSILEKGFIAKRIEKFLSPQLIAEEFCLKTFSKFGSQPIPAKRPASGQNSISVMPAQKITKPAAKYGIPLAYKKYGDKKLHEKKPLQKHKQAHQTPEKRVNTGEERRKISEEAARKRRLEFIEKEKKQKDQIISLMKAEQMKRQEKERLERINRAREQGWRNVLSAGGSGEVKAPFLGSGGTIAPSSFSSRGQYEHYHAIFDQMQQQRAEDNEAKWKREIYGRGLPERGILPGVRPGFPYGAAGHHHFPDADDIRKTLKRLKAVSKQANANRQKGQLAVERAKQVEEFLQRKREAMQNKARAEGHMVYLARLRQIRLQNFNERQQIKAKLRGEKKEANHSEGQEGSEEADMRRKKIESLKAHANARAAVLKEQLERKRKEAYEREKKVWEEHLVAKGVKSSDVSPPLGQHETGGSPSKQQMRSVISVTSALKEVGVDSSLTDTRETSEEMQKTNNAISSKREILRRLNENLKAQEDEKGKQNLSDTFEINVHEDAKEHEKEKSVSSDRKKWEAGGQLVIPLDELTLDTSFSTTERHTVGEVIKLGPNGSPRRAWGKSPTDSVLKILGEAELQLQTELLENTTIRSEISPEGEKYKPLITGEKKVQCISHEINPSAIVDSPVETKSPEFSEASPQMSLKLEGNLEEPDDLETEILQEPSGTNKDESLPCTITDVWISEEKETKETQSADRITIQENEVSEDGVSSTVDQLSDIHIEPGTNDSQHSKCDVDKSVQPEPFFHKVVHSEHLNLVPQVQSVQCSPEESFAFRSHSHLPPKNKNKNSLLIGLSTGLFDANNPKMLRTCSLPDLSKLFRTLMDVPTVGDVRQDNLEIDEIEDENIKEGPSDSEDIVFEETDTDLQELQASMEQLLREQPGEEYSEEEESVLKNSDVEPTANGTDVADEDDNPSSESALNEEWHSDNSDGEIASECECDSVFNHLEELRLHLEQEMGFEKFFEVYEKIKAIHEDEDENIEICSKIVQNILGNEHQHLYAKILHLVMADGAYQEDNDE", "test": "ProfilerPro Kinase Selectivity, NEK1", "experimental": "as §1"}, "FES": {"molecular_target": "T14, FES (Homo sapiens, UniProt P07332)", "T14 construct": "purchased Caliper LifeSciences", "test": "ProfilerPro Kinase Selectivity, FES", "experimental": "as §1"}}, "data": [{"smiles": "CC1(C)CC(=O)c2c(SC3CCCC3)sc(-c3cc[nH]n3)c2C1", "note": "[Example 7, 3-(Cyclopentylsulfanyl)-6,6-dimethyl-1-(1H-pyrazol-3-yl)-6,7-dihydro-2-benzothiophen-4(5H)-one]", "values": [{"measurement": "inhibition at 10 µM", "setting": "CHK1", "result": 8, "unit": "%"}, {"measurement": "inhibition at 10 µM", "setting": "EPHA8", "result": -3.8, "unit": "%"}, {"measurement": "inhibition at 10 µM", "setting": "PRKCZ", "result": 0.5, "unit": "%"}, {"measurement": "inhibition at 10 µM", "setting": "CK1G1", "result": 10.9, "unit": "%"}, {"measurement": "inhibition at 10 µM", "setting": "MSK1", "result": -2.8, "unit": "%"}, {"measurement": "inhibition at 10 µM", "setting": "PKD1", "result": -10.6, "unit": "%"}, {"measurement": "inhibition at 10 µM", "setting": "GCK", "result": 11.8, "unit": "%"}, {"measurement": "inhibition at 10 µM", "setting": "ABL", "result": 1.9, "unit": "%"}, {"measurement": "inhibition at 10 µM", "setting": "CK1D", "result": 12.9, "unit": "%"}, {"measurement": "inhibition at 10 µM", "setting": "FGFR2", "result": 2.6, "unit": "%"}, {"measurement": "inhibition at 10 µM", "setting": "BRSK2", "result": -11.1, "unit": "%"}, {"measurement": "inhibition at 10 µM", "setting": "MAPKAPK2", "result": 2, "unit": "%"}, {"measurement": "inhibition at 10 µM", "setting": "NEK1", "result": 1.4, "unit": "%"}, {"measurement": "inhibition at 10 µM", "setting": "FES", "result": -3.1, "unit": "%"}]}, {"smiles": "CSc1sc(-c2cc[nH]n2)c2c1C(=O)CCC2", "note": "[Example 1, 3-(Methylsulfanyl)-1-(1H-pyrazol-3-yl)-6,7-dihydro-2-benzothiophen-4(5H)-one]", "values": [{"measurement": "inhibition at 10 µM", "setting": "CHK1", "result": 0, "unit": "%"}, {"measurement": "inhibition at 10 µM", "setting": "EPHA8", "result": -0.2, "unit": "%"}, {"measurement": "inhibition at 10 µM", "setting": "PRKCZ", "result": 0.4, "unit": "%"}, {"measurement": "inhibition at 10 µM", "setting": "CK1G1", "result": 6.6, "unit": "%"}, {"measurement": "inhibition at 10 µM", "setting": "MSK1", "result": 5.1, "unit": "%"}, {"measurement": "inhibition at 10 µM", "setting": "PKD1", "result": 5.5, "unit": "%"}, {"measurement": "inhibition at 10 µM", "setting": "GCK", "result": 6.3, "unit": "%"}, {"measurement": "inhibition at 10 µM", "setting": "ABL", "result": 12.7, "unit": "%"}, {"measurement": "inhibition at 10 µM", "setting": "CK1D", "result": 44.6, "unit": "%"}, {"measurement": "inhibition at 10 µM", "setting": "FGFR2", "result": 4.9, "unit": "%"}, {"measurement": "inhibition at 10 µM", "setting": "BRSK2", "result": -1.7, "unit": "%"}, {"measurement": "inhibition at 10 µM", "setting": "MAPKAPK2", "result": 4.1, "unit": "%"}, {"measurement": "inhibition at 10 µM", "setting": "NEK1", "result": 9.1, "unit": "%"}, {"measurement": "inhibition at 10 µM", "setting": "FES", "result": -2.8, "unit": "%"}]}]}
